Laboratory results taken from patent US20120308538A1, “PREVENTING SPOILAGE IN ALCOHOL FERMENTATIONS” (priority 2011, published 2012).
Bridges are numbered along the chain shown (N, C = ends). Where no end group is shown, it is not given here.

Legend:
lager yeast CBMS = assay: Cytotoxic effects of HBD-3 against the lager yeast; format: cell-based, Saccharomyces pastorianus; conditions: data not shown
Protocol: (§1) To test the activity of β-Defensin-3 against beer-spoiling bacteria, a defensin bioassay was carried out as described in the Methods section. Since our goal was to express HBD-3 in lager yeast, the cytotoxic effects of HBD-3 against the lager yeast CBMS was also examined. […] The minimum inhibitory concentration (MIC) values for HBD-3 against Lb. brevis and Lb. malefermentas were 5 μg/ml 0.5 μg/ml respectively. The LD-100 and MIC were lower than that required against other gram positive strains such as S. mutans, S. pyogenes, and […]. […] (data not shown).

Lb. brevis = assay: In situ antimicrobial activity of HBD-3 secreted from yeast strains under fermentation conditions; format: cell-based, Lactobacillus brevis; conditions: summary statement, spoilage bacteria
Protocol: Yeast strains were grown up from single colonies in 3 mL YEP-Maltose medium (YEPM) and expanded to 2 liters. 40% (w/v) wort was reconstituted in water from spray-dried malt (Belgium) supplemented with 1 mM Zinc and autoclaved. The wort was diluted to give 1.02-1.060 g/mL density (10-15° Plato), and aerated. The yeast harvested from the 2 liter YEPM medium was resuspended in the diluted wort to give a yeast concentration of 1−1.5×10^7 cells/mL in either 250 ml sterile glass cylinders or in 2 L cylindro-conical EBC vessels. Wort was aerated once with compressed air, bubbling from the bottom of the vessel and anaerobic conditions were maintained by overlying with mineral oil. Flasks were incubated at a 45° angle, and incubated at 11-13° C. The density of the solution was measured every other day for 14 days. Samples were also used for the measurement of HBD-3 in the medium. At the end of the brewing period, yeast were recovered and stored for re-pitching if required. To test the efficacy of the HBD-3-yeast to prevent beer spoilage, individual beer spoilage bacterial strains (10^3/mL) were introduced along with pitching yeast. The surviving bacteria were quantified every other day along with viable yeast cells in the brew. The physical and chemical characteristics of the brew as well as taste and palatability were also measured with the help of healthy volunteers. […]

[1] = tested on: Lactobacillus malifermentus; format: cell-based
Protocol: (§2) Cultures of Lactobacillus brevis L1055 or a control bacterium Staphylococcus aureus-were cultured at 37° C. overnight in MRS media (10 g litre^−1 universal peptone, 5 g litre^−1 meat extract, 5 g litre^−1 yeast extract, 20 g litre^−1 D(+)-glucose, 2 g litre^−1 K2HPO4, 2 g litre^−1 diammonium hydrogen citrate, 5 g litre NaOAc, 0.1 g litre^−1 MgSO4, 0.05 g litre^−1 MnSO4, final pH 6.5+/−0.2 at 37° C.). To prevent yeast growth in samples taken from fermentations seeded with L. brevis, the MRS medium was supplemented with cycloheximide at 10 μg/ml. The cultures were diluted to give a final densitiy of approximately 10^3 cells/mL. Synthetic HBD (0.5-10 μg/mL) was added to the bacterial cultures in a final volume of 100 μl volumes. CMBS cultures containing the pGREG, HBD-3-505V or HBD-3-506V were grown in overnight synthetic medium plus galactose (2%). The supernatants were concentrated (1000-fold) using molecular filtration membranes [Molecular Weight Cut Off (MWCO) 2000] ensuring all unspent sugar was removed from the medium. The concentrated supernatants were added to the bacterial cultures as described above. Following a two-hour incubation at 37° C., the number of bacterial colonies in each sample was determined following incubation on MRS plates containing cycloheximide at 37° C. for 48 hrs.
as §1

Lactobacillus brevis = format: cell-based
Protocol: as §2, §1

beer spoilage bacteria = assay: Beer spoilage challenge in the bottled product (pilot scale 50 L fermentations); conditions: bottled product from CM-PGK-51 fermentation; no freeze-thawing cycle; larger than usual amounts of bacteria
Protocol: Pilot scale fermentations (50 L) were carried out using CM-PGK-51 as a starter culture.

[2] = tested on: Lactobacillus brevis 1105; assay: HBD-3 activity in beer fermentations: brew samples seeded with bacteria incubated with HBD-3; format: cell-based; conditions: HBD-3 5 μg/mL; day 14 brew samples; seeded day 6 at 10^2 and 10^4 cfu/ml; two independent fermentations
[3] = synthetic HBD-3, two-hour incubation at 37° C.

## GIINTLQKYYCRVRGGRCAVLSCLPKEEQIGKCSTRGRKCCRRKK (disulfide 11-40, 18-33, 23-41 (inferred)) [HBD-3, human β-defensin-3]
Lager yeast CBMS
  HBD-3 concentrations at which lager yeasts were resistant: up to 100 μg/ml
Lb. brevis
  reduction of bacterial load after quick freezing of the brew: 90-95%
[1]; synthetic HBD-3
  minimum inhibitory concentration (MIC): 0.5 µg/mL
[1]; [3]
  LD-100 (effectively killed at concentration): 1 µg/mL
Lactobacillus brevis; synthetic HBD-3
  minimum inhibitory concentration (MIC): 5 µg/mL
Lactobacillus brevis; [3]
  LD-100 (effectively killed at concentration): 10 µg/mL
Beer spoilage bacteria
  protective effects in beer spoilage challenge: did not reveal any protective effects
[2]
  reduction of bacterial load in the wort: 100 fold
